These results are taken from paper PMC4526366 (PLoS ONE, 2015).

Entries after “also recorded” stand apart in the source; their conditions may differ. Like-named read-outs stand apart in the source and are kept apart here. Where a SMILES comes first, the peptide text is derived from it. Where no end group is shown, it is not given here.

In data set [1] the target is T1, thrombin (Homo sapiens, UniProt P00734). The note with it: 2 h, 37°C, TBS pH 7.4, MALDI MS; for cleavage by thrombin (peptide remaining / digestion): 25 μM peptide, 1 μM thrombin (25:1). How it is done:
Reactions were stopped by freezing at –20°C until analysis. Samples (2 μl) were desalted in C-8 micro-columns (Ziptip-Milipore), washing 3 times with 0.1% TFA and eluting with 60% acetonitrile in water. Washes were diluted with 4 μl 50% acetonitrile and spotted (0.5–1 μl) on MALDI plates followed by addition of matrix solution. After drying, they were injected into the MS instrument and analyzed in reflectron (peptide plus thrombin) or linear (peptide alone) mode.

Data set [2] has as its target T2, α-thrombin (Homo sapiens, UniProt P00734).
T2 construct: purchased Sigma; Haematologic Technologies; or prepared in house from prothrombin (Enzyme Research Laboratories) with Oxyuranus scutellatus venom
The data set can be described thus: Inhibition of thrombin-mediated hydrolysis of S2238. It is filed as biochemical. How it is done:
[…] Reactions were started by addition of thrombin (0.5 nM) and absorbance was monitored for 10 minutes at 405 nm in a microplate reader. The data were fit to competitive or non-competitive models of inhibition using GraphPad Prism 5. In both cases, nonlinear regression was used to fit to the hyperbolic equation: v=Vmaxapp [S]/(Kmapp+[S]) In the case of competitive inhibition Vmaxapp = Vmax and in the case of noncompetitive inhibition Kmapp = Km.
In the case of competitive inhibition the inhibition constant (Ki) was obtained from fitting of: Kmapp = Km(1+[I]/Ki) .
For noncompetitive inhibition Ki was determined by fitting of: Vmaxapp = Vmax/(1+[I]/Ki)
The experiments were repeated three times.

Data set [3] relates to thrombin (α-thrombin). Briefly: thrombin at 1 μM in 1X TBS (10 X dilution of 10 X TBS pH 7.4). To be noted: 37°C, up to 2 hours.
In data set [4] the target is T1, thrombin. The data set can be described thus: biochemical.
Experimental: Inhibition of thrombin-mediated activation of FXI in the presence of long-chain (P700) polyphosphate (polyP) was done in according to Choi et al. [17] by adding 2 μM of polyP to buffer (20 mM Tris HCl, pH 7.4, 150 mM NaCl and 0.1% BSA) followed by different concentrations of peptide (23.4 nM to 600 nM). α-Thrombin (5 nM) and 60 nM of FXI were then added and samples were incubated at 37°C for 35 minutes. Reactions were stopped with 50 nM of the thrombin inhibitor anophelin [18, 19] and polybrene to dissociate complexes with polyP. S2236 (Chromogenix Inc.) was added to a concentration of 250 μM and product formed was read as absorbance at 405 nm for 5–10 minutes in a microplate reader. Results were expressed as the percentage of the maximum activity (mAU/min) in the absence of peptide. Experiments were performed in duplicate.
Data set [5] deals with T3, thrombin (α-thrombin) (Homo sapiens, UniProt P00734).
T3 construct: purchased Sigma; Haematologic Technologies; or prepared in house from prothrombin (Enzyme Research Laboratories) with Oxyuranus scutellatus venom
Briefly: Screening for inhibition of serine proteases (fluorogenic substrate hydrolysis). It is filed as biochemical. To be noted: 1 μM peptide, pre-incubated 30°C 10 min, mean of three independent experiments in triplicate.
Experimental: Linear fits of fluorescence increases as a function of time were verified with the Magellan—Data Analysis Software (Tecan group Ltd), and the slope in arbitrary fluorescence units per second (r^2 > 0.95) was used to calculate hydrolysis rate. Each experiment was performed in triplicate and the mean and standard error of three independent experiments were calculated. The substrate hydrolysis rate in the absence of the peptide was considered as 100% and compared with the remaining enzymatic activity in the presence of the peptide.

Data set [6] has as its target T2, α-thrombin. Briefly: Surface plasmon resonance, thrombin binding to immobilized peptide. To be noted: 150 mM NaCl. How it is done: Surface plasmon resonance (SPR) was used to measure interaction between immobilized peptides and thrombin using a Biacore T100 instrument. Approximately 500 resonance units of hyalomin-1 biotinylated at Lys1 or its N-terminal cleavage product (01–41) were bound to a neutravidin surface that had been immobilized on C5 chips using the amine coupling procedure. Kinetic measurements were carried out by injecting different concentrations of thrombin in 10 mM HEPES pH 7.4, 150 mM NaCl, 0.05%Tween-20. The chip surface was regenerated using injections of 10 mM glycine pH 2.5. Data were analyzed by global fitting of a 1:1 single state model using the Biacore T100 evaluation software. Binding of γ-thrombin with the same surface was also investigated under similar conditions.

The subject of data set [7] is BALB/c mice. To be noted: 2.5 mg/kg intravenous, tail transection after 15 min, hemoglobin by absorbance at 540.
Experimental: Briefly, BALB/c mice were anesthetized (xylazine and ketamine) and the common carotid artery was isolated for measuring blood flow continuously using a 0.5-V Doppler flow probe coupled to a TS420 flow meter (Thransonic Systems, Ithaca, NY) [21]. Before induction of thrombosis the tail vein was injected with 50 μl of hyalomin-1 (1 and 2.5 mg/kg) or vehicle (PBS). Thrombi were formed by placing a piece of filter paper (1 x 2 mm) saturated with 7.5% FeCl3 on the adventitial surface or the artery for 3 minutes. After washing with normal saline, blood flow was continuously monitored for 60 minutes or until the blood flow dropped to zero for at least 10 seconds. Tail bleeding was performed on anesthetized mice injected intravenously with peptide (2.5 mg/kg) or vehicle alone (PBS) in 100 μl. After 15 minutes, the distal 2 mm segment was removed and the tail was immersed in 40 ml distilled 37°C warmed water. Absorbance at 540 was measured to estimate hemoglobin content.
Data set [8] has as its system factor Xa. The note with it: cited from earlier work.
The test system of data set [9] is thrombin. To be noted: cited from earlier work.
[10] abbreviates: 150 mM NaCl, 0.5 nM thrombin, 37°C, pH 7.4, three experiments, read-out: inhibition constant (Ki), competitive model.

Take `CC[C@H](C)[C@H](NC(=O)[C@H](CCCNC(=N)N)NC(=O)[C@H](CCC(=O)O)NC(=O)[C@H](CO)NC(=O)[C@H](CC(=O)O)NC(=O)[C@H](CCCNC(=N)N)NC(=O)CNC(=O)[C@H](CO)NC(=O)CNC(=O)[C@@H]1CCCN1C(=O)[C@@H](NC(=O)[C@@H]1CCCN1C(=O)[C@H](CC(C)C)NC(=O)[C@H](CCCNC(=N)N)NC(=O)[C@@H]1CCCN1C(=O)[C@H](CCCCN)NC(=O)[C@H](C)NC(=O)[C@@H]1CCCN1C(=O)[C@@H](N)CCC(=O)O)C(C)C)C(=O)N1CCC[C@H]1C(=O)N[C@H](C(=O)N1CCC[C@H]1C(=O)N[C@H](C(=O)N[C@@H](CC(=O)O)C(=O)O)C(C)C)C(C)C` [36–59] (H-EPAKPRLPVPGSGRDSERIPVPVD-OH): the “cleavage in thrombin-free control” value in data set [1] (25 μM peptide without thrombin) is “no cleavage”. In data set [1], the “cleavage by thrombin (peptide remaining / digestion)” value was “complete digestion”. Besides, the Ki (commonly the equilibrium dissociation constant of an inhibitor or competing ligand from its target) in data set [2] (setting [10]) came out at 100 ± 2 nM; in [2] (salt concentration 50 mM, read-out: Ki, competitive model), 180 ± 30 nM.
Take `CC[C@H](C)[C@H](NC(=O)[C@H](CCCNC(=N)N)NC(=O)[C@H](CCC(=O)O)NC(=O)[C@H](CO)NC(=O)[C@H](CC(=O)O)NC(=O)[C@H](CCCNC(=N)N)NC(=O)CNC(=O)[C@H](CO)NC(=O)CNC(=O)[C@@H]1CCCN1C(=O)[C@@H](NC(=O)[C@@H]1CCCN1C(=O)[C@@H](N)CC(C)C)C(C)C)C(=O)N1CCC[C@H]1C(=O)N[C@H](C(=O)N1CCC[C@H]1C(=O)N[C@H](C(=O)N[C@@H](CC(=O)O)C(=O)O)C(C)C)C(C)C` [42–59] (H-LPVPGSGRDSERIPVPVD-OH): the Ki was found to be 1700 ± 100 nM in [2] (ionic strength 150 mM, read-out: Ki, non-competitive model) and 1800 ± 100 nM in data set [2] (salt concentration 50 mM, read-out: Ki, non-competitive model).
“DESDYDTYPDDNNDDSGERNGGSEPAKPRLPV [hyalomin (13–44) sulfated]”: in data set [3], the cleaved bond entry is “Arg41-Leu42”.
The same measure, in the same setting: the value for “DESDYDTYPDDNNDDSGERNGGSEPAKPRLPV [hyalomin-1 (13–44)]” was “Arg41-Leu42, 2 hr”.
On the same count and under the same terms, under EPAKPRLPVPGSGRDSERIPVPVD stands “Arg41-Leu42, two hours”; under “KPNLQSRSDDGVDESDYDTYPDDNNDDSGERNGGSEPAKPRLPVPGSGRDSERIPVPVD”, “Arg41-Leu42, two hours”.
With “KPNLQSRSDDGVDESDYDTYPDDNNDDSGERNGGSEPAKPRLPVPGSGRDSERIPVPVD [hyalomin-1]”, the IC50 (in general, the point on the concentration scale where inhibition reaches its midpoint) in data set [4] was about 25 nM. Besides, in data set [5], the “loss of thrombin control activity in the presence of the peptide” value worked out at 72%. Also, in data set [1], the “cleavage by thrombin (peptide remaining / digestion)” value is listed as “No full-length peptide”. The Kd (usually the constant that tells how readily two partners part at equilibrium) in data set [6] (SPR, immobilized biotinylated peptide, read-out: calculated dissociation equilibrium constant (KD)) was 19 nM. The kon in data set [6] (peptide biotinylated at N-terminal lysine on neutravidin surface, pH 7.4, 1:1 model, read-out: association rate constant (ka)) worked out at 1e+06 M⁻¹ s⁻¹. The koff in data set [6] (peptide biotinylated at N-terminal lysine on neutravidin surface, pH 7.4, 1:1 model, read-out: dissociation rate constant (kd)) was 0.02 s⁻¹. The Ki in [2] (50 mM salt, 0.5 nM thrombin, 37°C, read-out: inhibition constant (Ki), competitive model) is 0.4 ± 0.1 nM; in [2] (setting [10]), 11.9 ± 1.8 nM. Moreover, in data set [2] (800:1 peptide to enzyme (400 nM peptide, 0.5 nM thrombin), 37°C, six hour incubation, 50 μM S2238), the “potency of the inhibitor over incubation time with thrombin” value is “diminished in a time-dependent manner”. Further, the tail bleeding entry in data set [7] was “significant bleeding”.
“YPERDSAKDGNQEKERALLVKVQERYQGNQGDYDEYDQDETTPPPDPTAQTARPRLRQNQD”: the cleaved bond entry in [8] is recorded as “cleaved by factor Xa at Arg16; also recorded: cleaved by factor Xa at Arg25”; in data set [9] it was “cleaved upstream of this site at Lys21”.
As for “YPERDSAKEGNQEQERALHVKVQKRTDGDADYDEYEEDGTTPTPDPTAPTAKPRLRGNKP”, the cleaved bond entry in [8] is reported as “cleaved by factor Xa at Arg25; also recorded: cleaved by factor Xa at Arg54; also recorded: cleaved by factor Xa at Arg16”; in data set [9] it was “Arg54-Leu55; also recorded: cleaved upstream of this site at Lys21”.
